From the supplement of paper PMC10307832

Tests used:
Experiment in all cases: relative viability (nuclei count vs DMSO), 5 days (fraction); higher = more cells survive
AZD1208 + Dasatinib = compound: N[C@@H]1CCCN(c2c(/C=C3\SC(=O)NC3=O)cccc2-c2ccccc2)C1 [AZD1208] + Cc1nc(Nc2ncc(C(=O)Nc3c(C)cccc3Cl)s2)cc(N2CCN(CCO)CC2)n1 [Dasatinib] (partner 0.075 µM)
In short: (§1)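 Relative viability divides the nuclei count in treated wells by that in vehicle wells. Lung cancer cell lines were seeded in 1536-well plates, dosed by pin tool the next day, and fixed and stained after 5 days in one step with final 0.05% Triton X-100, 1% formaldehyde and 1 ug/ml Hoechst. Dosing was a single drug or a fixed anchor-drug dose plus five library-drug doses (not always all listed) in √10 steps, and values are medians of duplicate plates imaged at 4×.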

XMD14-99 + OSI-027 = compound: CN1CCN(CC1)C2=CC(=C(C=C2)NC3=NC(=C(S3)C(=O)C4=C(C=CC=C4Cl)Cl)N)OC [XMD14-99] + COc1cccc2cc(-c3nc([C@H]4CC[C@H](C(=O)O)CC4)n4ncnc(N)c34)[nH]c12 [OSI-027] (partner 0.5 µM)
In short: as §1

AZD1208 + Lapatinib = compound: N[C@@H]1CCCN(c2c(/C=C3\SC(=O)NC3=O)cccc2-c2ccccc2)C1 [AZD1208] + CS(=O)(=O)CCNCc1ccc(-c2ccc3ncnc(Nc4ccc(OCc5cccc(F)c5)c(Cl)c4)c3c2)o1 [Lapatinib] (partner 2 µM)
In short: as §1

XMD14-99 + Pictilisib = compound: CN1CCN(CC1)C2=CC(=C(C=C2)NC3=NC(=C(S3)C(=O)C4=C(C=CC=C4Cl)Cl)N)OC [XMD14-99] + CS(=O)(=O)N1CCN(Cc2cc3nc(-c4cccc5[nH]ncc45)nc(N4CCOCC4)c3s2)CC1 [Pictilisib] (partner 1 µM)
In short: as §1

Cell Line	relative viability (AZD1208 + Dasatinib; first compound 0.08 µM)	relative viability (AZD1208 + Dasatinib; first compound 0.253 µM)	relative viability (AZD1208 + Dasatinib; first compound 0.8 µM)	relative viability (AZD1208 + Dasatinib; first compound 2.53 µM)	relative viability (AZD1208 + Dasatinib; first compound 8 µM)	relative viability (XMD14-99 + OSI-027; first compound 0.08 µM)	relative viability (XMD14-99 + OSI-027; first compound 0.8 µM)	relative viability (XMD14-99 + OSI-027; first compound 2.53 µM)	relative viability (XMD14-99 + OSI-027; first compound 8 µM)	relative viability (AZD1208 + Lapatinib; first compound 0.08 µM)	relative viability (AZD1208 + Lapatinib; first compound 0.253 µM)	relative viability (AZD1208 + Lapatinib; first compound 0.8 µM)	relative viability (AZD1208 + Lapatinib; first compound 2.53 µM)	relative viability (AZD1208 + Lapatinib; first compound 8 µM)	relative viability (XMD14-99 + Pictilisib; first compound 0.08 µM)	relative viability (XMD14-99 + Pictilisib; first compound 0.8 µM)	relative viability (XMD14-99 + Pictilisib; first compound 2.53 µM)	relative viability (XMD14-99 + Pictilisib; first compound 8 µM)
NCI-H522	0.828	0.774	0.911	0.78	0.717	0.742	0.742	0.683	0.72									
HCC-15	0.57	0.487	0.489	0.492	0.368	0.606	0.622	0.638	0.463	0.871	0.858	0.874	0.858	0.831	0.727	0.778	0.703	0.495
A-427	0.553	0.644	0.531	0.659	0.431	0.457	0.421	0.401	0.311	1.11	0.988	0.843	1.15	0.815	0.694	0.784	0.607	0.448
NCI-H23	0.641	0.887	0.668	0.714	0.614	0.699	0.616	0.615	0.496	1.06	1.22	0.945	0.98	0.735	0.46	0.547	0.526	0.383
NCI-H1734	0.41	0.435	0.426	0.393	0.307	0.556	0.524	0.55	0.437	1.01	1.06	1.01	0.822	0.627	0.436	0.447	0.513	0.389
NCI-H1993	0.507	0.519	0.54	0.536	0.459	0.575	0.555	0.53	0.53		0.749	0.689	0.794	0.75	0.888	0.759	0.766	0.798
PC-3 [JPC-3]	1.13	1.11	1.01	1.05	0.957	0.769	0.701	0.638	0.541	0.424	0.412	0.451	0.413	0.389	0.793	0.73	0.717	0.586
NCI-H1915	0.305	0.298	0.296	0.294	0.239	0.629	0.548	0.487	0.415	0.985	1.08	1.02	0.962	0.977	0.927	0.934	0.902	0.595
NCI-H1666	0.843	0.829	0.828	0.763	0.834	0.881	0.731	0.799	0.651	0.442	0.574	0.452	0.389	0.456	0.449	0.448	0.403	0.343
HCC-366	0.625	0.64	0.479	0.493	0.287	0.855	1.05	0.82	0.608	1.06	1.17	0.951	1.13	0.933	0.137	0.143	0.156	0.149
SK-MES-1	0.336	0.336	0.284	0.341	0.306	0.589	0.506	0.54	0.291	0.407	0.418	0.421	0.415	0.374	0.407	0.327	0.349	0.247
NCI-H727	0.315	0.322	0.315	0.313	0.314	0.617	0.493	0.584	0.383	0.597	0.754	0.755	0.672	0.59	0.551	0.403	0.321	0.276
RERF-LC-KJ	0.685	0.608	0.546	0.595	0.483	0.572	0.556	0.527	0.366	0.819	0.896	0.698	0.679	0.562	0.668	0.521	0.487	0.477
NCI-H1623	0.633	0.514	0.484	0.438	0.632	0.434	0.43	0.392	0.396									
Calu-6										1.04	1.19	1.04	1.08	1.03	0.881	0.824	0.785	0.57
LC-2-ad	0.525	0.464	0.465	0.51	0.459	0.845	0.866	0.771	0.679	0.961	1.01	1.04	0.94	1.03	0.488	0.439	0.49	0.32
CAL-12T	0.316	0.393	0.329	0.48	0.464	0.492	0.68	0.747	0.377	0.634	0.771	0.6	0.695	0.588	0.397	0.453	0.334	0.287
SK-LU-1	0.162	0.14	0.154	0.168	0.133	0.34	0.391	0.301	0.213	0.802	0.864	0.826	0.831	0.839	0.554	0.576	0.545	0.344
NCI-H1650	0.267	0.311	0.255	0.261	0.296	0.705	0.7	0.49	0.395	0.777	0.878	0.735	0.602	0.667	0.561	0.67	0.505	0.328
BEN	0.334	0.243	0.285	0.299	0.314	0.29	0.295	0.312	0.264	0.677	0.449	0.524	0.568	0.437	0.554	0.523	0.641	0.442
EMC-BAC-2	0.301	0.319	0.321	0.32	0.264	0.362	0.384	0.313	0.292	0.827	0.889	0.783	0.835	0.723	0.573	0.519	0.519	0.413

Cell Line	relative viability (AZD1208 + Dasatinib; first compound 0.08 µM)	relative viability (AZD1208 + Dasatinib; first compound 0.253 µM)	relative viability (AZD1208 + Dasatinib; first compound 0.8 µM)	relative viability (AZD1208 + Dasatinib; first compound 2.53 µM)	relative viability (AZD1208 + Dasatinib; first compound 8 µM)	relative viability (XMD14-99 + OSI-027; first compound 0.08 µM)	relative viability (XMD14-99 + OSI-027; first compound 0.8 µM)	relative viability (XMD14-99 + OSI-027; first compound 2.53 µM)	relative viability (XMD14-99 + OSI-027; first compound 8 µM)	relative viability (AZD1208 + Lapatinib; first compound 0.08 µM)	relative viability (AZD1208 + Lapatinib; first compound 0.253 µM)	relative viability (AZD1208 + Lapatinib; first compound 0.8 µM)	relative viability (AZD1208 + Lapatinib; first compound 2.53 µM)	relative viability (AZD1208 + Lapatinib; first compound 8 µM)	relative viability (XMD14-99 + Pictilisib; first compound 0.08 µM)	relative viability (XMD14-99 + Pictilisib; first compound 0.8 µM)	relative viability (XMD14-99 + Pictilisib; first compound 2.53 µM)	relative viability (XMD14-99 + Pictilisib; first compound 8 µM)
LU99A	0.451	0.556	0.363	0.572	0.389	0.302	0.308	0.297	0.25	0.864	0.985	0.937	0.919	0.728	0.257	0.304	0.267	0.262
ABC-1	0.667	0.509	0.522	0.69	0.563	0.431	0.551	0.382	0.291	1.14	0.904	1.05	1.09	1.06	0.754	0.667	0.588	0.47
NCI-H2170	0.615	0.542	0.478	0.485	0.406	0.709	0.772	0.65	0.621	0.263	0.257	0.257	0.265	0.299	0.311	0.355	0.273	0.28
NCI-H1299										0.984	0.938	0.96	1	0.945	0.668	0.637	0.623	0.505
EBC-1										0.195	0.249	0.193	0.218	0.2	0.481	0.391	0.318	0.26
NCI-H2405	0.205	0.198	0.202	0.21	0.184	0.593	0.606	0.607	0.5	1.12	1.05	0.984	1.04	0.841	0.39	0.414	0.457	0.248
NCI-H2009	0.257	0.267	0.279	0.249	0.304	0.611	0.607	0.508	0.273	0.982	1.21	0.817	0.742	0.893	0.752	0.948	0.85	0.556
NCI-H441	0.593	0.486	0.425	0.55	0.437	0.61	0.568	0.665	0.427						0.451	0.442	0.51	0.283
PC-14	0.268	0.257	0.201	0.198	0.169	0.809	0.806	0.644	0.29	0.298	0.417	0.295	0.327	0.317	0.621	0.611	0.573	0.312
HARA	0.284	0.273	0.236	0.261	0.284	0.46	0.426	0.321	0.182	0.727	0.61	0.686	0.737	0.594	0.35	0.382	0.222	0.298
NCI-H2126	0.554	0.453	0.475	0.436	0.394	0.666	0.66	0.669	0.432	0.796	0.689	0.63	0.691	0.525	0.5	0.527	0.508	0.473
NCI-H1437	0.495	0.297	0.337	0.296	0.337	0.892	0.842	0.804	0.68	0.833	1.04	0.69	0.775	0.691	0.392	0.416	0.34	0.214
NCI-H2342	0.284	0.354	0.28	0.3	0.267	0.594	0.674	0.752	0.548									
ChaGo-K-1	0.657	0.624	0.518	0.539	0.514	0.554	0.658	0.612	0.472						0.811	0.703	0.67	0.509
HCC-44						0.46	0.493	0.421	0.469	1.01	0.987	1.06	0.999	0.947	0.6	0.655	0.568	0.626
A549										0.899	0.921	0.859	0.828	0.721	0.397	0.545	0.505	0.348
SW 900	0.456	0.693	0.427	0.547	0.367	0.532	0.727	0.548	0.366									
IA-LM										0.766	0.948	0.766	0.621	0.633	0.34	0.256	0.157	0.191
NCI-H1703										0.852	1.04	0.804	1.05	0.626	0.276	0.269	0.27	0.22
LCLC-103H	0.448	0.501	0.421	0.448	0.33	0.409	0.417	0.465	0.406						0.58	0.731	0.558	0.454
NCI-H1648						0.268	0.25	0.231	0.227									
